According to US7115622B2, “Amido ether substituted imidazoquinolines” (3M Innovative Properties Company, priority 2000, dated 2006):

Key:
[1] = tested on: tumor necrosis factor (α); experiment: Cytokine Induction in Human Cells: tumor necrosis factor induction in PBMC; type: cell-based; parameters: key to Lowest Effective Concentration (μM) Tumor Necrosis Factor: *: no induction was seen at any of the tested concentrations; generally the highest concentration tested was 10 or 30 μM; details: 18 to 24 hours incubation, tested 30–0.014 μM, ELISA or IGEN assay; for minimal effective concentration: read-out: Lowest Effective Concentration (μM) Tumor Necrosis Factor
Text: (§1) An in vitro human blood cell system is used to assess cytokine induction. Activity is based on the measurement of interferon and tumor necrosis factor (α) (IFN and TNF, respectively) secreted into culture media as described by Testerman et. al. In “Cytokine Induction by the Immunomodulators Imiquimod and S-27609”, Journal of Leukocyte Biology, 58, 365–372 (September, 1995).
(§2) Whole blood from healthy human donors is collected by venipuncture into EDTA vacutainer tubes. Peripheral blood mononuclear cells (PBMC) are separated from whole blood by density gradient centrifugation using Histopaque®-1077. Blood is diluted 1:1 with Dulbecco's Phosphate Buffered Saline (DPBS) or Hank's Balanced Salts Solution (HBSS). The PBMC layer is collected and washed twice with DPBS or HBSS and resuspended at 4×10^6 cells/mL in RPMI complete. The PBMC suspension is added to 48 well flat bottom sterile tissue culture plates (Costar, Cambridge, Mass. or Becton Dickinson Labware, Lincoln Park, N.J.) containing an equal volume of RPMI complete media containing test compound.
(§3) The compounds are solubilized in dimethyl sulfoxide (DMSO). The DMSO concentration should not exceed a final concentration of 1% for addition to the culture wells. The compounds are generally tested at concentrations ranging from 30–0.014 μM.
(§4) The solution of test compound is added at 60 μM to the first well containing RPMI complete and serial 3 fold dilutions are made in the wells. The PBMC suspension is then added to the wells in an equal volume, bringing the test compound concentrations to the desired range (30–0.014 μM). The final concentration of PBMC suspension is 2×10^6 cells/mL. The plates are covered with sterile plastic lids, mixed gently and then incubated for 18 to 24 hours at 37° C. in a 5% carbon dioxide atmosphere.
(§5) Following incubation the plates are centrifuged for 10 minutes at 1000 rpm (˜200×g) at 4° C. The cell-free culture supernatant is removed with a sterile polypropylene pipet and transferred to sterile polypropylene tubes. Samples are maintained at −30 to −70° C. until analysis. The samples are analyzed for interferon (α) by ELISA and for tumor necrosis factor (α) by ELISA or IGEN Assay
Tumor necrosis factor (α) (TNF) concentration is determined using ELISA kits available from Biosource International, Camarillo, Calif. Alternately, the TNF concentration can be determined by Origen® M-Series Immunoassay and read on an IGEN M-8 analyzer from IGEN International, Gaithersburg, Md. The immunoassay uses a human TNF capture and detection antibody pair from Biosource International, Camarillo, Calif. Results are expressed in pg/mL.
(§6) The table below lists the lowest concentration found to induce interferon and the lowest concentration found to induce tumor necrosis factor for each compound.

interferon (α) = experiment: Cytokine Induction in Human Cells: interferon induction in PBMC; type: cell-based; parameters: key to Lowest Effective Concentration (μM) Interferon: *: no induction was seen at any of the tested concentrations; generally the highest concentration tested was 10 or 30 μM; details: 18 to 24 hours incubation, tested 30–0.014 μM, ELISA; for minimal effective concentration: read-out: Lowest Effective Concentration (μM) Interferon
Text: as §1, §2, §3, §4, §5
Interferon (α) and Tumor Necrosis Factor (α) Analysis by ELISA Interferon (α) concentration is determined by ELISA using a Human Multi-Species kit from PBL Biomedical Laboratories, New Brunswick, N.J. Results are expressed in pg/mL.
as §6

Row | SMILES | Lowest Effective Concentration (μM) Tumor Necrosis Factor [1] | minimal effective concentration (interferon (α)) [µM] | minimal effective concentration [1] [µM] | Lowest Effective Concentration (μM) Interferon (interferon (α))
1 | CN(C(=O)CCCCOCCn1cnc2c(N)nc3ccccc3c21)c1ccccc1 [Example 12, 5-[2-(4-amino-1H-imidazo[4,5-c]quinolin-1-yl)ethoxy]-N-methyl-N-phenylpentanamide] | * | 3.33 | – | –
2 | CCCCN(C(=O)CCCCOCCn1cnc2c(N)nc3ccccc3c21)c1ccccc1 [Example 13, 5-[2-(4-amino-1H-imidazo[4,5-c]quinolin-1-yl)ethoxy]-N-butyl-N-phenylpentanamide] | * | 10 | – | –
3 | CCCCc1nc2c(N)nc3ccccc3c2n1CCOCCNC(=O)C1CC1 [Example 15] | – | 0.1 | 1 | –
4 | CCCCC(=O)NCCOCCn1c(CCCC)nc2c(N)nc3ccccc3c21 [Example 16] | – | 0.1 | 1 | –
5 | CCCCc1nc2c(N)nc3ccccc3c2n1CCOCCNC(=O)C1CCCC1 [Example 17] | – | 1 | 1 | –
6 | CCCCc1nc2c(N)nc3ccccc3c2n1CCOCCNC(=O)c1ccccc1 [Example 18] | – | 1 | 10 | –
7 | CCCCc1nc2c(N)nc3ccccc3c2n1CCOCCNC(=O)C1CCCCC1 [Example 19] | – | 1 | 10 | –
8 | CCCCc1nc2c(N)nc3ccccc3c2n1CCOCCNC(=O)Cc1ccccc1 [Example 20] | – | 0.1 | 10 | –
9 | CCCCc1nc2c(N)nc3ccccc3c2n1CCOCCNC(=O)c1ccc(F)cc1 [Example 21] | – | 1 | 10 | –
10 | CCCCc1nc2c(N)nc3ccccc3c2n1CCOCCNC(=O)Cc1cccs1 [Example 22] | – | 0.1 | 10 | –
11 | CCCCc1nc2c(N)nc3ccccc3c2n1CCOCCNC(=O)c1ccc(C#N)cc1 [Example 23] | – | 1 | 10 | –
12 | CCCCc1nc2c(N)nc3ccccc3c2n1CCOCCNC(=O)c1cccc(C#N)c1 [Example 24] | – | 1 | 10 | –
13 | CCCCc1nc2c(N)nc3ccccc3c2n1CCOCCNC(=O)CCc1ccccc1 [Example 25] | – | 1 | 10 | –
14 | CCCCc1nc2c(N)nc3ccccc3c2n1CCOCCNC(=O)c1cccc(OC)c1 [Example 26] | – | 1 | 10 | –
15 | CCCCc1nc2c(N)nc3ccccc3c2n1CCOCCNC(=O)c1ccc(OC)cc1 [Example 27] | – | 1 | 10 | –
16 | CCCCc1nc2c(N)nc3ccccc3c2n1CCOCCNC(=O)c1ccc(Cl)nc1 [Example 28] | – | 1 | 10 | –
17 | CCCCc1nc2c(N)nc3ccccc3c2n1CCOCCNC(=O)[C@@H]1C[C@H]1c1ccccc1 [Example 29] | – | 1 | 10 | –
18 | CCCCc1nc2c(N)nc3ccccc3c2n1CCOCCNC(=O)COCc1ccccc1 [Example 30] | – | 1 | 10 | –
19 | CCCCc1nc2c(N)nc3ccccc3c2n1CCOCCNC(=O)c1cccc2ccccc12 [Example 31] | – | – | 10 | *
20 | CCCCc1nc2c(N)nc3ccccc3c2n1CCOCCNC(=O)c1cccc(C(F)(F)F)c1 [Example 32] | – | – | 10 | *
21 | CCCCc1nc2c(N)nc3ccccc3c2n1CCOCCNC(=O)c1ccc(C(F)(F)F)cc1 [Example 33] | – | – | 10 | *
22 | CCCCc1nc2c(N)nc3ccccc3c2n1CCOCCNC(=O)c1ccc(OC(F)(F)F)cc1 [Example 34] | – | – | 10 | *

Row | SMILES | Lowest Effective Concentration (μM) Tumor Necrosis Factor [1] | minimal effective concentration (interferon (α)) [µM] | minimal effective concentration [1] [µM] | Lowest Effective Concentration (μM) Interferon (interferon (α))
23 | CCC(COCCC1CCN(C(=O)C2CC2)CC1)n1cnc2c(N)nc3ccccc3c21 (stereo not shown) [Example 35] | – | 0.1 | 1 | –
24 | CCCCC(=O)N1CCC(CCOCC(CC)n2cnc3c(N)nc4ccccc4c32)CC1 (stereo not shown) [Example 36] | – | 1 | 1 | –
25 | CCC(COCCC1CCN(C(=O)C2CCCC2)CC1)n1cnc2c(N)nc3ccccc3c21 (stereo not shown) [Example 37] | – | 1 | 1 | –
26 | CCC(COCCC1CCN(C(=O)c2ccccc2)CC1)n1cnc2c(N)nc3ccccc3c21 (stereo not shown) [Example 38] | – | 1 | 10 | –
27 | CCC(COCCC1CCN(C(=O)Cc2ccccc2)CC1)n1cnc2c(N)nc3ccccc3c21 (stereo not shown) [Example 39] | – | 1 | 10 | –
28 | CCC(COCCC1CCN(C(=O)c2ccc(F)cc2)CC1)n1cnc2c(N)nc3ccccc3c21 (stereo not shown) [Example 40] | – | 1 | 1 | –
29 | CCC(COCCC1CCN(C(=O)Cc2cccs2)CC1)n1cnc2c(N)nc3ccccc3c21 (stereo not shown) [Example 41] | – | 0.1 | 1 | –
30 | CCC(COCCC1CCN(C(=O)c2cccc(C#N)c2)CC1)n1cnc2c(N)nc3ccccc3c21 (stereo not shown) [Example 42] | – | 1 | 1 | –
31 | CCC(COCCC1CCN(C(=O)CCc2ccccc2)CC1)n1cnc2c(N)nc3ccccc3c21 (stereo not shown) [Example 43] | – | 1 | 10 | –
32 | CCC(COCCC1CCN(C(=O)c2ccc(OC)cc2)CC1)n1cnc2c(N)nc3ccccc3c21 (stereo not shown) [Example 44] | – | 1 | 1 | –
33 | CCC(COCCC1CCN(C(=O)c2ccc(Cl)nc2)CC1)n1cnc2c(N)nc3ccccc3c21 (stereo not shown) [Example 45] | – | 0.1 | 1 | –
34 | CCC(COCCC1CCN(C(=O)c2cccnc2)CC1)n1cnc2c(N)nc3ccccc3c21 (stereo not shown) [Example 46] | – | 0.1 | 1 | –
35 | CCC(COCCC1CCN(C(=O)[C@@H]2C[C@H]2c2ccccc2)CC1)n1cnc2c(N)nc3ccccc3c21 (stereo partly shown) [Example 47] | * | 1 | – | –
36 | CCC(COCCC1CCN(C(=O)COCc2ccccc2)CC1)n1cnc2c(N)nc3ccccc3c21 (stereo not shown) [Example 48] | – | 0.1 | 10 | –
37 | CCC(COCCC1CCN(C(=O)c2ccc3ccccc3c2)CC1)n1cnc2c(N)nc3ccccc3c21 (stereo not shown) [Example 49] | – | 1 | 10 | –
38 | CCC(COCCC1CCN(C(=O)c2cccc(C(F)(F)F)c2)CC1)n1cnc2c(N)nc3ccccc3c21 (stereo not shown) [Example 50] | – | 1 | 1 | –
39 | CCC(COCCC1CCN(C(=O)c2ccc(OC(F)(F)F)cc2)CC1)n1cnc2c(N)nc3ccccc3c21 (stereo not shown) [Example 51] | – | 10 | 10 | –
40 | CCCCC(=O)NCCOCCn1cnc2c(N)nc3ccccc3c21 [Example 52] | – | 10 | 10 | –
41 | Nc1nc2ccccc2c2c1ncn2CCOCCNC(=O)c1ccccc1 [Example 53] | – | 10 | 10 | –
42 | Nc1nc2ccccc2c2c1ncn2CCOCCNC(=O)C1CCCCC1 [Example 54] | – | 10 | 10 | –
43 | Nc1nc2ccccc2c2c1ncn2CCOCCNC(=O)Cc1ccccc1 [Example 55] | – | 1 | 10 | –
44 | Nc1nc2ccccc2c2c1ncn2CCOCCNC(=O)Cc1cccs1 [Example 56] | – | 1 | 10 | –
